One assay deals with Escherichia coli. In words: Inhibition of Escherichia coli FtsZ polymerization.
Assay [1] addresses T1, Cell division protein FtsZ (Bacillus subtilis (strain 168), UniProt P17865).
T1 sequence (P17865 whole entry): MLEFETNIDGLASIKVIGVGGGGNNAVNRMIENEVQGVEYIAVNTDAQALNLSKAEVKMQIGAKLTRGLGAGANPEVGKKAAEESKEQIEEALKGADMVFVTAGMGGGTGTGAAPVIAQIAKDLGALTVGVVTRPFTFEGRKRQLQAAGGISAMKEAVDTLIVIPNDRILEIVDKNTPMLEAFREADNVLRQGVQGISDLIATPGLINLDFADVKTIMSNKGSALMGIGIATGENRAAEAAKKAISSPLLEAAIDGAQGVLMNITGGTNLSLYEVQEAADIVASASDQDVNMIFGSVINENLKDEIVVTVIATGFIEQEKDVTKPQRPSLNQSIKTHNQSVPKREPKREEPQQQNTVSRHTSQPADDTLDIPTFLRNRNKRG
Put plainly: Inhibition of Bacillus subtilis FtsZ polymerization.

Assay [2] is described as follows: Inhibition of FtsZ polymerization.
A short description of assay [3]: Inhibition of FtsZ GTPase.

≈ marks a conversion by molar mass, not a printed value. Calls of active or inactive are those of the source. The rule behind the calls is not given here.

A word on the IC50: it is the concentration that gives 50% inhibition. For the compound `COc1cc(/C=C/C(=O)CC(=O)/C=C/c2ccc(O)c(OC)c2)ccc1O` [CURCUMIN], the inhibition entry in the assay with Escherichia coli was “Active”. For the same compound, the IC50 in assay [1] came out at 30 µM.

As for `COC(=O)CC1Cc2cc3cc(OC)c(-c4c(OC)cc5cc6c(c(O)c5c4O)C(=O)OC(CC(=O)OC)C6)c(O)c3c(O)c2C(=O)O1` (centres undefined) [VIRIDITOXIN], the IC50 in assay [2] came to 8.2 mg/L (≈ 12.4 µM); in assay [3], 7 mg/L (≈ 10.6 µM).

(Values after ChEMBL document CHEMBL1240458, “Probing the binding site of curcumin in Escherichia coli and Bacillus subtilis FtsZ--a structural insight to unveil antibacterial activity of curcumin” (Eur J Med Chem, 2010).)
